Some test systems named below: U251 CNS; 786-0 renal; HOP-62 NSCLC; NCI-H460 lung; MDA-MB-231 breast; UACC-257 melanoma; ACHN renal; RPMI-8226 leukemia; HT29 colon; SK-MEL-28 melanoma.
Holding throughout (experiment): growth of human tumour cells (NCI), 48 h

Several values for one entry are separate records, joined by “and”; a condition that tells them apart may be missing. Equal values may be shown once.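 Interpolation was linear, between the two tested concentrations surrounding the appropriate level; five concentrations were tested over 48 hours in 96-well plates. GI50 is the concentration that inhibits growth by half. Definition used: TGI = concentration required for complete inhibition of growth.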

As to `CCCCCCCCCCCCNC(=O)[C@H]1CSC(c2cc(Br)cs2)N1` (stereo not given in full), the GI50 in the assay on U251 CNS is 1.05 µM; in the assay on 786-0 renal it was 2.51 µM; with HOP-62 NSCLC, 0.822 µM; in the assay with NCI-H460 lung, 0.991 µM; in the assay with MDA-MB-231 breast it was 0.83 µM; with UACC-257 melanoma, 1.24 µM. Further, the GI50 in the assay on ACHN renal was 2.01 µM; in the assay with RPMI-8226 leukemia, 1.38 µM; with HT29 colon it was 1.59 µM; in the assay on SK-MEL-28 melanoma it was 0.759 µM. The TGI with U251 CNS came out at 2.26 µM; in the assay with 786-0 renal it was 8.32 µM; in the assay with HOP-62 NSCLC, 1.56 µM; with NCI-H460 lung it was 1.99 µM; in the assay with MDA-MB-231 breast it was 1.61 µM; with UACC-257 melanoma, 3 µM. For the same compound, the TGI in the assay on ACHN renal was 6.54 µM; with RPMI-8226 leukemia, 3.61 µM; in the assay with HT29 colon, 5.76 µM; with SK-MEL-28 melanoma, 1.49 µM.
On to `Cc1cc(N2CCN(C)CC2)nc(N(CCNc2ccnc3cc(Cl)ccc23)Cc2ccco2)n1`, for which the GI50 was 3.11 µM in the assay with U251 CNS; 1.93 µM with 786-0 renal; 2.63 µM in the assay on HOP-62 NSCLC; 3.52 µM in the assay with NCI-H460 lung; 2.46 µM in the assay on MDA-MB-231 breast; 2.07 µM in the assay with UACC-257 melanoma. Further, the GI50 with ACHN renal was 5.08 µM; in the assay on RPMI-8226 leukemia it was 2.18 µM; in the assay on HT29 colon it was 2.47 µM; with SK-MEL-28 melanoma, 1.71 µM. Further, the TGI amounted to 10.2 µM in the assay with U251 CNS; 4.83 µM with 786-0 renal; 9.73 µM with HOP-62 NSCLC; 11.8 µM in the assay with NCI-H460 lung; 7.84 µM in the assay on MDA-MB-231 breast; 4.25 µM in the assay on UACC-257 melanoma. Also, the TGI in the assay with ACHN renal worked out at 17.5 µM; in the assay with RPMI-8226 leukemia it was 5.72 µM; in the assay on HT29 colon, 10.4 µM; in the assay with SK-MEL-28 melanoma it was 3.31 µM.
As for `NC(Cc1ccc(O)cc1)C(=O)N/N=C/c1ccc(N(CCCl)CCCl)cc1` (stereo not given), the GI50 is 27.8 µM in the assay with U251 CNS; 5.98 µM with 786-0 renal; 11.1 µM in the assay with HOP-62 NSCLC; 0.647 µM with NCI-H460 lung; 5.25 µM in the assay on MDA-MB-231 breast; 15.6 µM in the assay with UACC-257 melanoma. Also, the GI50 in the assay on ACHN renal was 6.42 µM; in the assay on RPMI-8226 leukemia it was 10.1 µM; in the assay on HT29 colon, 28.5 µM; with SK-MEL-28 melanoma, 58.7 µM. In addition, the TGI in the assay on U251 CNS is more than 100 µM; in the assay with 786-0 renal, 75.9 µM; with HOP-62 NSCLC, more than 100 µM; in the assay with NCI-H460 lung, 26.7 µM; with MDA-MB-231 breast it was 32.6 µM; in the assay on UACC-257 melanoma it was 98.5 µM. Also, the TGI in the assay with ACHN renal, in the assay with RPMI-8226 leukemia, in the assay on HT29 colon and in the assay with SK-MEL-28 melanoma was more than 100 µM each time.
As for `C[C@@H](Oc1cc(-c2cnn(C3CC4(CNC4)C3)c2)cnc1N)c1c(Cl)ccc(F)c1Cl`, the GI50 is 5.01 µM in the assay on U251 CNS; 5.6 µM in the assay with 786-0 renal; 2.3 µM with HOP-62 NSCLC; 1.98 µM with NCI-H460 lung; 2.23 µM in the assay on MDA-MB-231 breast; 1.79 µM in the assay with UACC-257 melanoma. Moreover, the GI50 in the assay with ACHN renal was 4.89 µM; in the assay on RPMI-8226 leukemia it was 3.22 µM; with HT29 colon it was 1.7 µM; in the assay with SK-MEL-28 melanoma, 1.74 µM. For the same compound, the TGI in the assay with U251 CNS was 19.1 µM; in the assay with 786-0 renal, 19.1 µM; with HOP-62 NSCLC, 13.4 µM; in the assay on NCI-H460 lung, 13.7 µM; in the assay on MDA-MB-231 breast, 14.4 µM; in the assay on UACC-257 melanoma it was 4.33 µM. Further, the TGI with ACHN renal was found to be 18.3 µM; in the assay on RPMI-8226 leukemia, 13 µM; in the assay on HT29 colon it was 5.98 µM; with SK-MEL-28 melanoma, 4 µM.
Turning to `O=C(O)CN(CC(=O)O)c1ccccc1`, the TGI in the assay with U251 CNS, in the assay with 786-0 renal, in the assay with HOP-62 NSCLC, with NCI-H460 lung, with MDA-MB-231 breast and with UACC-257 melanoma was more than 100 µM each time. The TGI was more than 100 µM in the assay on ACHN renal, 92.1 µM with RPMI-8226 leukemia, more than 100 µM with HT29 colon and more than 100 µM in the assay on SK-MEL-28 melanoma.
For the compound `CCc1ccc(Oc2nccc(-c3c(-c4ccc(F)cc4)ncn3C3CCNCC3)n2)cc1`, the GI50 in the assay with U251 CNS is 4.06 µM; with 786-0 renal, 4.91 µM; in the assay on HOP-62 NSCLC, 4.13 µM; in the assay with NCI-H460 lung, 4.28 µM; in the assay with MDA-MB-231 breast it was 5.16 µM; with UACC-257 melanoma, 4.34 µM. The GI50 is 4.77 µM with ACHN renal, 5.77 µM with RPMI-8226 leukemia, 3.84 µM with HT29 colon and 4.73 µM in the assay with SK-MEL-28 melanoma. For the same compound, the TGI in the assay with U251 CNS came out at 9.16 µM; in the assay on 786-0 renal, 10.4 µM; with HOP-62 NSCLC, 8.53 µM; in the assay with NCI-H460 lung it was 8.49 µM; with MDA-MB-231 breast it was 13.6 µM; in the assay with UACC-257 melanoma it was 8.04 µM. Further, the TGI in the assay with ACHN renal was found to be 13.6 µM; in the assay with RPMI-8226 leukemia, 14.9 µM; with HT29 colon, 8.15 µM; in the assay on SK-MEL-28 melanoma, 8.44 µM.
As to `CC[C@@]1(O)C(=O)OCc2c1cc1n(c2=O)Cc2cc3c(Cl)c4c(cc3nc2-1)OCO4`, the GI50 with U251 CNS was less than 0.001 µM; with HOP-62 NSCLC, less than 0.001 µM; in the assay on NCI-H460 lung it was less than 0.001 µM; in the assay on MDA-MB-231 breast, 0.00975 µM and 0.0722 µM; in the assay with UACC-257 melanoma it was 0.156 µM and 0.312 µM; in the assay with ACHN renal, less than 0.001 µM. For the same compound, the GI50 with SK-MEL-28 melanoma is 0.442 µM and 1.18 µM. For the same compound, the TGI in the assay on 786-0 renal was more than 100 µM; with NCI-H460 lung, 0.279 µM and 0.382 µM; in the assay on MDA-MB-231 breast it was more than 100 µM; in the assay with UACC-257 melanoma it was 3.64 µM and 1.92 µM; in the assay with ACHN renal, 0.00185 µM and 0.0109 µM; in the assay on RPMI-8226 leukemia, 4.38 µM. Moreover, the figures for the TGI in the assay with HT29 colon and with SK-MEL-28 melanoma were 7.85 µM and more than 100 µM, respectively.
`O=C(O)CC1C(=O)OC2C3COC(=O)c4cc(O)c(O)c(O)c4-c4c(cc(O)c(O)c4O)C(=O)OC2C(OC(=O)c2cc(O)c(O)c4c2C1C(O)C(=O)O4)C(OC(=O)c1cc(O)c(O)c(O)c1)O3` (stereo not given): the TGI in the assay with U251 CNS is 73 µM; in the assay with 786-0 renal it was 56.5 µM; in the assay with HOP-62 NSCLC it was more than 100 µM; with NCI-H460 lung it was 31.4 µM; in the assay with MDA-MB-231 breast it was 78.6 µM; with UACC-257 melanoma it was more than 100 µM. Besides, the TGI in the assay on ACHN renal is more than 100 µM; with RPMI-8226 leukemia, more than 100 µM; in the assay on HT29 colon, 26.4 µM; with SK-MEL-28 melanoma it was more than 100 µM.

For the origin of these results see PubChem BioAssay (NCI).
